Experimental findings from US11554118B2 (priority 2017, dated 2023) are described below.

Where two headings read alike, the source gives them in different places.

For assay [1], the target named is BTK (Homo sapiens (Human), UniProt Q06187). In words: biochemical.
Protocol: Btk kinase activity was determined using a homogenous time resolved fluorescence (HTRF) methodology. Measurements were performed in a reaction volume of 15 μL using 384-well assay plates. Kinase enzyme, inhibitor, ATP and 1 M peptide substrate were incubated in a reaction buffer compose of Hepes 50 mM (pH7.0), NaN3 0.02%, BSA 0.01%, Orthocanadate 0.1 mM. […] For each compound, enzyme activity as measured at various concentrations of compound, Negative control reactions were performed in the absence of inhibitor in two replicates and eight no enzyme controls were used to determine baseline fluorescence levels.
Assay [2] deals with Btk (Mus musculus (Mouse), UniProt P35991). The experiment in a line: Btk occupancy in vivo (PCI-33380 labeling of PBMCs or splenocytes). Further details: species or system BALB/c mice. To be noted: Babc/L mice, after 4 hours.
Chain of Btk (P35991 whole entry, looked up): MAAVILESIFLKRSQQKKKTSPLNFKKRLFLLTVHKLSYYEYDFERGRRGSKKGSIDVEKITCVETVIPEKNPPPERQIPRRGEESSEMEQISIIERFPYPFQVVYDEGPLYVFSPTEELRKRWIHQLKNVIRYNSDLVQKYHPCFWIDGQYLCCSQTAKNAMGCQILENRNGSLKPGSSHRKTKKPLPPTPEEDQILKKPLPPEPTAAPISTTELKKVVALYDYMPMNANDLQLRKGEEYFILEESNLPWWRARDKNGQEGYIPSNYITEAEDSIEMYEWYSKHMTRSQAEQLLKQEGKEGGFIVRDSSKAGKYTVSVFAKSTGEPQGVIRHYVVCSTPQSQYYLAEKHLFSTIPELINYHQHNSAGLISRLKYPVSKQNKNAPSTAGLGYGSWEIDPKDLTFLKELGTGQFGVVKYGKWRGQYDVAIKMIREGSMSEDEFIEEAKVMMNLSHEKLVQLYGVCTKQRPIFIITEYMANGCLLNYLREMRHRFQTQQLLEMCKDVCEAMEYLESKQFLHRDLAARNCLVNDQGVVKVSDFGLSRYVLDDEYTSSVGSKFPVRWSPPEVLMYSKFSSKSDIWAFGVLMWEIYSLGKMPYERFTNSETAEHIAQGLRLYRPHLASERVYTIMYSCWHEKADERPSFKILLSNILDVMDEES
Protocol: For analysis of Btk occupancy in Babc/L mice following oral dosing of compounds after 4 hours. Isolating peripheral blood mononuclear cells (PBMCs) with mouse peripheral blood separation kit (Hao Yang Biological Manufacture CO., LTD, Tianjin) were collected from Babc/L mice (1 ml blood from two mice). Spleens were processed to splenocytes followed by 5 min incubation in red blood cell lysing buffer (from mouse peripheral blood separation kit).

Chain of BTK (Q06187 whole entry, looked up, species assumed): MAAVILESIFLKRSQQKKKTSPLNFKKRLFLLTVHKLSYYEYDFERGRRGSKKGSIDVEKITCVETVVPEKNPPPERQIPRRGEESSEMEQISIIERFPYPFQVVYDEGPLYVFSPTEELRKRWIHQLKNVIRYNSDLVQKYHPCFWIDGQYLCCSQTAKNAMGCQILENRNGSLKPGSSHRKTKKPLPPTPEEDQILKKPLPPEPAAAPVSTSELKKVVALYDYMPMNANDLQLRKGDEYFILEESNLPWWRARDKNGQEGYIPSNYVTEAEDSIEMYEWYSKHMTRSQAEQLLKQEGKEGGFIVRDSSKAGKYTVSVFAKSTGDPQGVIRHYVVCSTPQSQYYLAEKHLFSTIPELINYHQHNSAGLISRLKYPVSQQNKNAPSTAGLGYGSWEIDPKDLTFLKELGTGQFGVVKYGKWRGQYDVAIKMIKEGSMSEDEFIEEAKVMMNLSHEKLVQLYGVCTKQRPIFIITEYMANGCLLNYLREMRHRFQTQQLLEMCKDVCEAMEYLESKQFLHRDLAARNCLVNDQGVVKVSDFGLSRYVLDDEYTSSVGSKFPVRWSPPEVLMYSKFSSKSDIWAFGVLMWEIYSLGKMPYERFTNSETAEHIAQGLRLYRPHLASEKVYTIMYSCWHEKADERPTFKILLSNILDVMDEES

Take `CC#CC(=O)N1CC[C@@H](c2nc(-c3ccc(C(=O)Nc4cc(C(F)(F)F)ccn4)cc3F)c3cncc(OCC)n23)C1` [Compound 198, (R)-4-(3-(1-(but-2-ynoyl)pyrrolidin-3-yl)-5-ethoxyimidazo[1,5-a]pyrazin-1-yl)-3-fluoro-N-(4-(trifluoromethyl)pyridin-2-yl)benzamide]: at BTK [1], the IC50 lay within 10 to 100 nM.

Regarding `C=CC(=O)N1CCCC[C@H]1c1nc(-c2ccc(Oc3cccc(OC)c3F)cc2)c2c(C)nccn12` [Compound 27, (S)-1-(2-(1-(4-(2-fluoro-3-methoxyphenoxy)phenyl)-8-methylimidazo[1,5-a]pyrazin-3-yl)piperidin-1-yl)prop-2-en-1-one], the “Btk occupancy in vivo” value at Btk [2] (10 mg/kg single oral dose) is on record as “full occupancy”.

On to `C=CC(=O)N1CCC[C@H]1c1nc(-c2ccc(Oc3cccc(OC)c3F)cc2)c2cnccn12` [Compound 30, (S)-1-(2-(1-(4-(2-fluoro-3-methoxyphenoxy)phenyl)imidazo[1,5-a]pyrazin-3-yl)pyrrolidin-1-yl)prop-2-en-1-one], for which the “Btk occupancy in vivo” value on Btk [2] (5 mg/kg single oral dose) is recorded as “full occupancy”.

In turn, `CC#CC(=O)N1CC[C@@H](c2nc(-c3ccc(C(=O)Nc4cc(C(F)(F)F)ccn4)cc3)c3cncc(OCC)n23)C1` [Compound 196, (R)-4-(3-(1-(but-2-ynoyl)pyrrolidin-3-yl)-5-ethoxyimidazo[1,5-a]pyrazin-1-yl)-N-(4-(trifluoromethyl)pyridin-2-yl)benzamide] came in with an IC50 on BTK [1] of 100 to 1000 nM.

As for `C=CC(=O)N1CCC[C@H]1c1nc(-c2ccc(C(=O)Nc3cc(C(F)(F)F)ccn3)cc2)c2cncc(OCC)n12` [Compound 204, (S)-4-(3-(1-acryloylpyrrolidin-2-yl)-5-ethoxyimidazo[1,5-a]pyrazin-1-yl)-N-(4-(trifluoromethyl)pyridin-2-yl)benzamide], the IC50 at BTK [1] (read-out: BTK Inhibition) was under 10 nM.

At BTK [1], `CC#CC(=O)N1CCC[C@H]1c1nc(-c2ccc(C(=O)Nc3cc(C(F)(F)F)ccn3)cc2)c2cncc(OCC)n12` [Compound 203, (S)-4-(3-(1-(but-2-ynoyl)pyrrolidin-2-yl)-5-ethoxyimidazo[1,5-a]pyrazin-1-yl)-N-(4-(trifluoromethyl)pyridin-2-yl)benzamide] registered an IC50 of 100 to 1000 nM.

On to `C=CC(=O)N1CCC[C@@H](c2nc(-c3ccc(Oc4cccc(OC)c4F)cc3)c3cnccn23)C1` [Compound 1, (R)-1-(3-(1-(4-(2-fluoro-3-methoxyphenoxy)phenyl)imidazo[1,5-a]pyrazin-3-yl)piperidin-1-yl)prop-2-en-1-one], for which, at Btk [2] (5 mg/kg single oral dose), the “Btk occupancy in vivo” value is listed as “full occupancy”.

Consider `C=CC(=O)N1CC[C@@H](c2nc(-c3ccc(C(=O)Nc4cc(C(F)(F)F)ccn4)cc3F)c3cncc(OCC)n23)C1` [Compound 197, (R)-4-(3-(1-acryloylpyrrolidin-3-yl)-5-ethoxyimidazo[1,5-a]pyrazin-1-yl)-3-fluoro-N-(4-(trifluoromethyl)pyridin-2-yl)benzamide], for which the IC50 on BTK [1] (read-out: BTK Inhibition) is under 10 nM.
